A short description of the data set: Solubility experiments and 1H-NMR spectra: complexing with cyclodextrins. The data set is classed as physicochemical. The following applies: hydrochloride of BIII 890; γ-cyclodextrin, HPγCD, HPβCD and SBEβCD.

With `C[C@@H](CN1CC[C@@]2(C)c3cccc(O)c3C[C@@H]1C2(C)C)OCc1ccccc1` [BIII 890, (−)-(1R,2″S)-2-(2″-benzyloxy)propyl-4′-hydroxy-5,9,9-trimethyl-6,7-benzomorphan], the “complexing of the active substance by cyclodextrins” value is listed as “complex”.

(Values after patent US20040019013A1, “Formulation for the parenteral application of a sodium channel blocker” (Boehringer Ingelheim Pharma GmbH & Co. KG, Ingelheim, …, priority 2002, published 2004).)
